We go through 12 molecules from patent publication US9433687B2, “Anti-Notch3 antibodies and antibody-drug conjugates” (Pfizer Inc., priority 2012, dated 2016).

Test [1] concerns OVCAR3 ovarian xenografts. The test can be described thus: OVCAR3 ovarian xenograft model. As to conditions: dose 20 mg/kg intraperitoneally Q7d×8.
Test [2] relates to 37622A1 NSCLC patient-derived xenografts. The experiment in a line: 37622A1 patient derived NSCLC xenograft model. Type of test: in vivo, mouse. As to conditions: 5 mg/kg Q4dx4. The source says: The effects of anti-Notch3 ADCs were examined in immunodeficient mice on the in vivo growth of human tumor xenografts that were established from fragments of freshly resected 37622A1 NSCLC tumors obtained in accordance with appropriate consent procedures (Asterand). The 37622A1 NSCLC patient-derived xenografts were subcutaneously passaged in vivo as fragments from animal to animal in nude (Nu/Nu) female mice. When the tumors reached a volume of 150 to 300 mm^3, they were staged to ensure uniformity of the tumor size among various treatment groups. The 37622A1 NSCLC patient-derived xenografts model was dosed intravenously four times every four days (Q4d×4) with PBS vehicle, humanized anti-Notch3 ADCs, control huNeg-8.8 ADCs and cisplatin at the doses provided in Table 19.
For orientation: In xenograft studies the graft and the host belong to different species.

Test [3] deals with N87 gastric xenografts. The experiment in a line: N87 gastric xenograft model. As to conditions: for tumor volume: dose 5 mg/kg intravenously Q4d×4. It is filed as in vivo, mouse. On the procedure: Similar in vivo experiments were performed with the N87 gastric cancer cell line as described above. To generate xenografts, nude (Nu/Nu) female mice were implanted subcutaneously with 8×10^6 N87 cells in 50% Matrigel (BD Biosciences).
The N87 gastric model was also dosed intravenously Q4d×4 with PBS vehicle, rat-human chimeric anti-Notch3 ADCs and control huNeg-8.8 ADCs, at a dose of 5 mg/kg as provided in FIG. 16D.
The N87 gastric model was also dosed intravenously Q4d×4 with PBS vehicle and rat-human chimeric anti-Notch3 ADCs ch28-mc0131, ch75-mc0131, ch28-m(H2O)c-0131 and ch75-m(H2O)c-0131 at a dose of 5 mg/kg as provided in FIG. 16E.

Test [4] deals with HCC2429 (lung cancer). The experiment in a line: In vitro cytotoxicity (MTS), HCC2429. Type of test: cell-based, human. As to conditions: Table 13; four days; LP = lacked potency. On the procedure: (§1) The effects of anti-Notch3 ADCs were assessed on 1) cell lines endogenously expressing Notch3 protein: HCC2429 (lung cancer), OVCAR3 (ovarian cancer) and MDA-MB-468 (breast cancer), 2) cell lines engineered to over-express full length human Notch3 protein: MDA-MB-468/hNotch3 and U2OS/hNotch3, and 3) a negative control cell line (SW900) using an MTS cellular viability indicator (Promega, Madison, Wis.). These cell lines were cultured with increasing concentrations of anti-Notch3 ADCs comprising rat-human chimeric anti-Notch3 antibodies, ch28 and ch75, and humanized anti-Notch3 antibodies, hu28 and hu75, conjugated to various linker-payload combinations of the present invention. As a specificity control for the anti-Notch3-ADCs, non-targeted control-ADCs (huNeg8.8-ADCs or ch2H6-ADCs) were also tested on the same cell lines. After four days, viability of each culture was assessed. IC50 values were calculated by logistic non-linear regression, model #203 with XL fit v4.2 (IDBS, Guildford, Surry, UK) and presented as ng Ab/mL. The drug antibody ratio (DAR) is also provided.
(§2) This process generated the anti-Notch3 cysteine mutant ADCs: hu28-(L443C)-vc0101 and hu28-(L443C/κK183C)-vc0101. The activity of the anti-Notch3 cysteine mutant ADCs were assessed on cell lines endogenously expressing Notch3 protein: HCC2429 (lung cancer) and OVCAR3 (ovarian cancer) using an MTS cellular viability indicator as described in previous Examples.

Test [5] deals with OVCAR3 (ovarian cancer). The test can be described thus: In vitro cytotoxicity (MTS), OVCAR3. It is filed as cell-based, human. As to conditions: Table 13; four days; LP = lacked potency. On the procedure: as §1, §2
The subject of test [6] is MDA-MB-468 (breast cancer). The experiment in a line: In vitro cytotoxicity (MTS), MDA-MB-468. Type of test: cell-based, human. The following applies: Table 13; four days; LP = lacked potency. On the procedure:
as §1

With `N.N.O=C([O-])C1(C(=O)[O-])CCC1.[Pt+2]` [carboplatin, reference compound], the tumor volume in test [1] (DAY 0) stood at 167 mm3; in test [1] (DAY 3) it was 242 mm3; in test [1] (DAY 6) it was 246 mm3; in test [1] (DAY 11), 311 mm3; in test [1] (DAY 14) it was 426 mm3; in test [1] (DAY 18) it was 473 mm3. For the same molecule, the tumor volume in test [1] (DAY 21) amounted to 475 mm3; in test [1] (DAY 25), 552 mm3; in test [1] (DAY 28), 640 mm3; in test [1] (DAY 31), 692 mm3; in test [1] (DAY 34), 811 mm3; in test [1] (DAY 38), 869 mm3. In addition, the tumor volume was determined as 906 mm3 in test [1] (DAY 41); 1009 mm3 in test [1] (DAY 45); 1149 mm3 in test [1] (DAY 49); 1290 mm3 in test [1] (DAY 53); 1370 mm3 in test [1] (DAY 56); 1514 mm3 in test [1] (DAY 59). The tumor volume is listed as 1783 mm3 in test [1] (DAY 63) and 1844 mm3 in test [1] (DAY 67).
Consider `N.N.[Cl][Pt][Cl]` [Cisplatin, reference compound], for which the tumor volume in test [2] (Day 4) came out at 226 mm^3; in test [2] (Day 7) it was 280 mm^3; in test [2] (Day 11) it was 301 mm^3; in test [2] (Day 14), 345 mm^3; in test [2] (Day 18) it was 309 mm^3; in test [2] (Day 21) it was 373 mm^3. The tumor volume in test [2] (Day 25) is given as 401 mm^3; in test [2] (Day 28), 446 mm^3; in test [2] (Day 32), 482 mm^3; in test [2] (Day 35) it was 587 mm^3; in test [2] (Day 39), 591 mm^3; in test [2] (Day 42), 612 mm^3. Moreover, the tumor volume in test [2] (Day 46) is 723 mm^3; in test [2] (Day 49) it was 853 mm^3; in test [2] (Day 53), 970 mm^3; in test [2] (Day 56) it was 1215 mm^3; in test [2] (Day 60), 1428 mm^3; in test [2] (Day -1), 185 mm^3. Besides, the tumor volume is listed as 328 mm^3 in test [3] (DAY 0); 414 mm^3 in test [3] (DAY 4); 520 mm^3 in test [3] (DAY 7); 501 mm^3 in test [3] (DAY 11); 637 mm^3 in test [3] (DAY 14).

B1: ch28-mc0131 (conjugate)
VH: EVQLVESGGGLVQPGRSLTLSCVASGFTFRDYGMTWIRQAPGKGLTWVAYISSGSNYIYYAEAVKGRFTISRDNAKNTLYLQMTSLRSEDTALYFCTRRGPFVLDAWGQGASVTVSS
VL: DIQMTQSPSFLSASVGDRVTINCKASQSINRYLHWFQQKLGEAPKLLIYNANGLQTGIPSRFSGSGSGTDFTLTISSLQSEDVATYFCLQHNTWPDTFGAGTKLELK
As to B1, in test [4], the “IC50 (ng Ab/mL) ± S.E.M., HCC2429” value stood at 251 ± 77.5 ng Ab/mL. In addition, the “IC50 (ng Ab/mL) ± S.E.M., OVCAR3” value in test [5] was 6 ± 1.0 ng Ab/mL. In test [6], the “IC50 (ng Ab/mL) ± S.E.M., MDA-MB-468” value is recorded as 35 ± 18.5 ng Ab/mL. Besides, in test [3] (5 mg/kg iv Q4dx4, FIG. 16D, 16E), the “growth of N87 gastric xenografts” value is “inhibited growth of N87 gastric xenografts”.

B2: ch28-mc3377 (conjugate)
VH: B1 VH
VL: B1 VL
For the molecule B2, in test [5], the “IC50 (ng Ab/mL) ± S.E.M., OVCAR3” value came out at 14 ± 5.5 ng Ab/mL. Also, the “IC50 (ng Ab/mL) ± S.E.M., MDA-MB-468” value in test [6] was 27 ± 11.3 ng Ab/mL.

B3: ch28-me0131 (conjugate)
VH: B1 VH
VL: B1 VL
On to B3, for which the “IC50 (ng Ab/mL) ± S.E.M., HCC2429” value in test [4] was found to be 30 ng Ab/mL. Further, the “IC50 (ng Ab/mL) ± S.E.M., OVCAR3” value in test [5] is 8 ± 2.0 ng Ab/mL. Besides, the “IC50 (ng Ab/mL) ± S.E.M., MDA-MB-468” value in test [6] is on record as 24 ± 14.0 ng Ab/mL.

B4: ch28-vc6780 (conjugate)
VH: B1 VH
VL: B1 VL
For B4, the “IC50 (ng Ab/mL) ± S.E.M., HCC2429” value in test [4] is listed as 324 ± 78.9 ng Ab/mL. In addition, the “IC50 (ng Ab/mL) ± S.E.M., OVCAR3” value in test [5] is 90 ± 48.5 ng Ab/mL. Also, the “IC50 (ng Ab/mL) ± S.E.M., MDA-MB-468” value in test [6] was 4407 ± 2128.2 ng Ab/mL.

B5: ch28-MalPeg6C2-0131 (conjugate)
VH: B1 VH
VL: B1 VL
In the case of B5, in test [5], the “IC50 (ng Ab/mL) ± S.E.M., OVCAR3” value worked out at 10 ± 2.0 ng Ab/mL. The “IC50 (ng Ab/mL) ± S.E.M., MDA-MB-468” value in test [6] worked out at 10 ± 1.0 ng Ab/mL.

B6: ch28-mc8261 (conjugate)
VH: B1 VH
VL: B1 VL
As for B6, the “IC50 (ng Ab/mL) ± S.E.M., MDA-MB-468” value in test [6] is listed as 12147 ± 4806.4 ng Ab/mL.

B7: ch28-MalPeg6C2-8261 (conjugate)
VH: B1 VH
VL: B1 VL
On to B7, for which, in test [6], the “IC50 (ng Ab/mL) ± S.E.M., MDA-MB-468” value is recorded as 83 ± 35.5 ng Ab/mL.

B8: ch75-MalPeg6C2-8261 (conjugate)
VH: QVKLLQSGAALVKPGASVKMSCKASGYAFTDYWVTWVKQSHGKSLEWIGEISPNSGGTNFNEKFKGKATLTVDKSTSTAYMELSRLTSEDSAIYYCTRGEIRYNWFAYWGQGTLVTVSS
VL: DIQMTQSPSSLSASVGDRVTITCKASQNVGNNIAWYQQKPGKAPKLLIYYASNRYTGVPSRFSGSGYGTDFTLTISSLQPEDFATYYCQRLYNSPFTFGGGTKVEIK
As for B8, the “IC50 (ng Ab/mL) ± S.E.M., MDA-MB-468” value in test [6] is given as 4255 ± 2375^ ng Ab/mL.

B9: ch75-mc3377 (conjugate)
VH: B8 VH
VL: B8 VL
As for B9, the “IC50 (ng Ab/mL) ± S.E.M., MDA-MB-468” value in test [6] is on record as 560 ng Ab/mL.

B10: ch75-me0131 (conjugate)
VH: B8 VH
VL: B8 VL
As to B10, the “IC50 (ng Ab/mL) ± S.E.M., MDA-MB-468” value in test [6] worked out at 259 ng Ab/mL.
